Source: patent US7713994B2 (Wyeth LLC, priority 2005, dated 2010)

Experiments:
[1] = molecular target: T1, cyclin D1/cdk 4 enzyme (Homo sapiens, UniProt P11802); experiment: CDK4 ELISA kinase assay (phospho-Rb ser 795 detection); type: biochemical; settings: In Vitro Enzyme Assay, cyclin D1/cdk 4, read-out: CDK4 IC50
T1 construct: made in house; host or cells: Sf9 insect cells, recombinant baculovirus
In short: (§1)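 GST-Rb C-terminal fragment coated on plates; partially purified Sf9-expressed cyclin D1/CDK4, cyclin E/CDK2 or cyclin B/CDK1 with 200 μM ATP, pH 7.5 HEPES/MgCl2 buffer, 1 h at 30 °C; screen compound final 10 μg/ml. Phospho-Rb Ser795 detected by antibody ELISA (TMB, A450); % of control, IC50 from background-subtracted inhibition curves.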

[2] = molecular target: T2, cyclin E/CDK2 enzyme (Homo sapiens, UniProt P24941); experiment: CDK2 ELISA kinase assay (phospho-Rb ser 795 detection); type: biochemical; settings: In Vitro Enzyme Assay, cyclin E/CDK2, read-out: CDK2 IC50
T2 construct: made in house; host or cells: Sf9 insect cells, recombinant baculovirus
In short: as §1

[3] = molecular target: T3, cyclin B/CDK1 enzyme (Homo sapiens, UniProt P06493); experiment: CDK1 ELISA kinase assay (phospho-Rb ser 795 detection); type: biochemical; settings: In Vitro Enzyme Assay, cyclin B/CDK1, read-out: CDK1 IC50
T3 construct: purchased New England BioLabs; host or cells: Sf9 insect cells, recombinant baculovirus
In short: as §1

[4] = system: BT474; experiment: Cytotoxicity assay (SRB), BT474; type: cell-based; settings: Homo sapiens, BT-474, 144 h, BT474 cells, 6 days, SRB; read-out: In Vitro Cellular Activity IC50 BT474
In short: (§2)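 Cells seeded overnight at 37 °C, 7% CO2 (BT474 12000, HCT-116 4000, LoVo and MCF-7 6000 cells/well) in RPMI 1640 with 5% FBS, then exposed to compound dilutions for 3 days (BT474 6 days). Survival versus untreated controls by TCA fixation and SRB staining, absorbance 540 nm.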

[5] = system: HCT-116; experiment: Cytotoxicity assay (SRB), HCT-116; type: cell-based; settings: Homo sapiens, HCT-116, 72 h, HCT116 cells, 3 days, SRB; read-out: In Vitro Cellular Activity IC50 HCT116
In short: as §2

[6] = system: LoVo; experiment: Cytotoxicity assay (SRB), LoVo; type: cell-based; settings: Homo sapiens, LoVo, 72 h, LoVo cells, 3 days, SRB; read-out: In Vitro Cellular Activity IC50 LOVO
In short: as §2

[7] = system: MCF-7; experiment: Cytotoxicity assay (SRB), MCF-7; type: cell-based; settings: Homo sapiens, MCF7, 72 h, MCF-7 cells, 3 days, SRB; read-out: In Vitro Cellular Activity IC50 MCF-7
In short: as §2

T1 sequence (P11802 whole entry, species assumed): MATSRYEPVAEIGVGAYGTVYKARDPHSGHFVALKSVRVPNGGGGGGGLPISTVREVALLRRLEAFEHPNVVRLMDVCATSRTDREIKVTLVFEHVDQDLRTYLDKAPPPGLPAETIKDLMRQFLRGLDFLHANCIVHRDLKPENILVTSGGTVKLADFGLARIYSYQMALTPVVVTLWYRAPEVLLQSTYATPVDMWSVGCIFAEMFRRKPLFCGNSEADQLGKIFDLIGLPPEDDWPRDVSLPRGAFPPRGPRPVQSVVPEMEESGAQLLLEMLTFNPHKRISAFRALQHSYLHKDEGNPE
T1 sequence (P24385 whole entry partner, species assumed): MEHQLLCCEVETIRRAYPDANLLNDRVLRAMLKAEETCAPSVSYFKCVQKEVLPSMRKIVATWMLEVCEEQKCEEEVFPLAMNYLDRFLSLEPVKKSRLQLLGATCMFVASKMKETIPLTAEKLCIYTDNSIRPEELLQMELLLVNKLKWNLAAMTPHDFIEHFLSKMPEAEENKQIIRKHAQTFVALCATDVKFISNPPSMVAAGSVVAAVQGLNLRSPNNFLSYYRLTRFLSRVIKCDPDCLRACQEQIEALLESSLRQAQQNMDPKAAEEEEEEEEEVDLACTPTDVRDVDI
T3 sequence (P06493 whole entry): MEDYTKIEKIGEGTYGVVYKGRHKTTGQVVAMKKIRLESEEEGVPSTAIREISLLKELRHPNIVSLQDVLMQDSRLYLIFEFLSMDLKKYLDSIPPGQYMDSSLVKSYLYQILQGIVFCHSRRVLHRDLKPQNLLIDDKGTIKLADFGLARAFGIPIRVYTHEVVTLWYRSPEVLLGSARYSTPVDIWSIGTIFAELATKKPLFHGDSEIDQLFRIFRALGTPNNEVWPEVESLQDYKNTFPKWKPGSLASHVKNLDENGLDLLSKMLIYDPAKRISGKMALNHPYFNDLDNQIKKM
T3 sequence (P14635 whole entry partner): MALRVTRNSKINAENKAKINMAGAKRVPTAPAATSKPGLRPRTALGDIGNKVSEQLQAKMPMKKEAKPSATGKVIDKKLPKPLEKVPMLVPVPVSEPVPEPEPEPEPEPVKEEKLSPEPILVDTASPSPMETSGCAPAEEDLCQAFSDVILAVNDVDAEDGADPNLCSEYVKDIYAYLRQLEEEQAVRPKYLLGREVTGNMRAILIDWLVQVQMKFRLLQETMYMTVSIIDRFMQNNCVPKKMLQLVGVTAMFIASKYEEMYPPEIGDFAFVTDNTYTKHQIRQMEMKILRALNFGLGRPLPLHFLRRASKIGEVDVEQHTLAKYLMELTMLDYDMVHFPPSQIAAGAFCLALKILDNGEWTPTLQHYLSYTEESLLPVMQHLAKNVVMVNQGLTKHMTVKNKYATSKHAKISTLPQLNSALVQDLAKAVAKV

Row | SMILES | IC50 [1] | IC50 [2] | IC50 [3] | IC50 [4] | IC50 [5] | IC50 [6] | IC50 [7]
1 | O=C1NC(=O)c2ccc(I)cc2/C1=C/NCc1ccc(-c2ccc(F)cc2)c(O)c1 [Example 500, 4-{[(4′-Fluoro-2-hydroxy-biphenyl-4-ylmethyl)-amino]-methylene}-6-iodo-4H-isoquinoline-1,3-dione] | 0.14 µM | 15.1 µM | 43.4 µM | 2.3 µM | 1.9 µM | 1.8 µM | 3.8 µM
2 | O=C1NC(=O)c2ccc(-c3ccco3)cc2/C1=C/NCc1ccc(-c2ccc(F)cc2)c(O)c1 [Example 501, 4-{[(4′-Fluoro-2-hydroxy-biphenyl-4-ylmethyl)-amino]-methylene}-6-furan-2-yl-4H-isoquinoline-1,3-dione] | 0.03 µM | 29.3 µM | > 50 µM | 3.5 µM | 2.6 µM | 2.9 µM | 1.4 µM
3 | O=C1NC(=O)c2ccc(-c3ccco3)cc2/C1=C/NCc1cc(O)ccc1I [Example 503, 6-Furan-2-yl-4-[(5-hydroxy-2-iodo-benzylamino)-methylene]-4H-isoquinoline-1,3-dione] | 0.02 µM | 34.7 µM | > 50 µM | 1.6 µM | 5.2 µM | 5.1 µM | 1 µM
4 | O=C1NC(=O)c2ccc(I)cc2/C1=C/NCc1ccc(I)c(O)c1 [Example 504, 4-[(3-Hydroxy-4-iodo-benzylamino)-methylene]-6-iodo-4H-isoquinoline-1,3-dione] | 0.008 µM | > 50 µM | > 50 µM | 1 µM | 3.9 µM | 4.3 µM | 1.5 µM
5 | CN(C)C1CCN(Cc2ccc(N/C=C3\C(=O)NC(=O)c4ccc(-c5ccoc5)cc43)cc2)C1 (centres unmarked) [Example 513, (4Z)-4-{[(4-{[3-(Dimethylamino)pyrrolidin-1-yl]methyl}phenyl)amino]methylene}-6-(3-furyl)isoquinoline-1,3(2H,4H)-dione] | 0.17 µM | 13.2 µM | > 50 µM | 1.84 µM | 1.54 µM | 3.45 µM | 2.53 µM
6 | O=C1NC(=O)c2ccc(I)cc2/C1=C/NCc1ccc(NC(=O)c2ccco2)c(O)c1 [Example 516, N-[2-Hydroxy-4-({[(Z)-(6-iodo-1,3-dioxo-2,3-dihydroisoquinolin-4(1H)-ylidene)methyl]amino}methyl)phenyl]-2-furamide] | 0.22 µM | > 50 µM | > 50 µM | 18.2 µM | 3.83 µM | 21.4 µM | 24.1 µM
7 | CN(C)Cc1cccc(-c2ccc(CN/C=C3\C(=O)NC(=O)c4ccc(I)cc43)cc2O)c1 [Example 519, 4-{[(3′-Dimethylaminomethyl-2-hydroxy-biphenyl-4-ylmethyl)-amino]-methylene}-6-iodo-4H-isoquinoline-1,3-dione] | 0.01 µM | 6.5 µM | 17.3 µM | 2.2 µM | 0.82 µM | 1.4 µM | 1 µM
8 | O=C1NC(=O)c2ccc(I)cc2/C1=C/NCc1cc(O)c(OCCN2CCCC2)cn1 [Example 522, 4-({[4-Hydroxy-5-(2-pyrrolidin-1-yl-ethoxy)-pyridin-2-ylmethyl]-amino}-methylene)-6-iodo-4H-isoquinoline-1,3-dione] | 0.11 µM | 4.5 µM | 32.4 µM | 2.13 µM | 1.42 µM | 1.19 µM | 0.99 µM
9 | CN(C)CC(=O)Nc1ccc(CN/C=C2\C(=O)NC(=O)c3ccc(I)cc32)cc1O [Example 526, N^1-[2-Hydroxy-4-({[(Z)-(6-iodo-1,3-dioxo-2,3-dihydroisoquinolin-4(1H)-ylidene)methyl]amino}methyl)phenyl]-N^2,N^2-dimethylglycinamide] | 0.02 µM | 0.5 µM | 2.1 µM | 7.2 µM | 2.4 µM | 5.6 µM | 3.3 µM
10 | CCCCn1ccc(CN/C=C2\C(=O)NC(=O)c3ccc(I)cc32)cc1=O [Example 529, (4Z)-6-Iodo-4-({[(1-butyl-2-oxo-1,2-dihydropyridin-4-yl)methyl]amino}methylene)isoquinoline-1,3(2H,4H)-dione] | 0.1 µM | 5 µM | 22.4 µM | 1.2 µM | 1.7 µM | 1.5 µM | 2.4 µM
11 | CC(C)(C)c1ccc2c(c1)/C(=C/NCc1ccn(-c3ccoc3)c(=O)c1)C(=O)NC2=O [Example 533, (4Z)-6-tert-Butyl-4-[({[1-(3-furyl)-2-oxo-1,2-dihydropyridin-4-yl]methyl}amino)methylene]isoquinoline-1,3(2H,4H)-dione] | 0.03 µM | 3.5 µM | 6.4 µM | 0.49 µM | 1.5 µM | 0.73 µM | 1.5 µM
12 | CC(C)(C)c1ccc2c(c1)/C(=C/NCc1cc(O)c(-c3ccoc3)cc1F)C(=O)NC2=O [Example 534, 6-tert-Butyl-4-[(2-fluoro-4-furan-3-yl-5-hydroxy-benzylamino)-methylene]-4H-isoquinoline-1,3-dione] | 0.09 µM | > 50 µM | > 50 µM | 0.73 µM | 1.6 µM | 1.2 µM | 2.6 µM
13 | O=C1NC(=O)c2ccc(C3CCCC3)cc2/C1=C/NCc1ccc(-c2ccoc2)c(O)c1 [Example 536, 6-Cyclopentyl-4-[(4-furan-3-yl-3-hydroxy-benzylamino)-methylene]-4H-isoquinoline-1,3-dione] | 0.02 µM | 3.1 µM | > 50 µM | 0.43 µM | 1.1 µM | 0.51 µM | 2.1 µM
14 | CCN(CC)Cc1ccc(NC=C2C(=O)NC(=O)c3ccccc32)cc1 [Example 574, 4-[(4-Diethylaminomethyl-phenylamino)-methylene]-4H-isoquinoline-1,3-dione] | 5.5 µM | 30.4 µM | 18.5 µM | 10.6 µM | 10.3 µM | 29.8 µM | 14 µM
15 | CCCN(Cc1ccc(NC=C2C(=O)NC(=O)c3ccccc32)cc1)CC1CC1 [Example 575, 4-({4-[(Cyclopropylmethyl-propyl-amino)-methyl]-phenylamino}-methylene)-4H-isoquinoline-1,3-dione] | 9.2 µM | > 50 µM | 11.8 µM | 28.1 µM | 16.6 µM | 21.8 µM | 20.3 µM
16 | O=C1NC(=O)c2ccccc2/C1=C/Nc1ccc(CN2CCCC2)cc1 [Example 576, 4-[(4-Pyrrolidin-1-ylmethyl-phenylamino)-methylene]-4H-isoquinoline-1,3-dione] | 7.5 µM | 39.8 µM | 13.8 µM | 7.4 µM | 6.3 µM | 19.1 µM | 7.6 µM
17 | CN(Cc1ccc(NC=C2C(=O)NC(=O)c3ccccc32)cc1)C1CCCCC1 [Example 577, 4-({4-[(Cyclohexyl-methyl-amino)-methyl]-phenylamino}-methylene)-4H-isoquinoline-1,3-dione] | 34 µM | > 50 µM | 17.7 µM | 24.5 µM | 9.6 µM | 14.4 µM | 20.1 µM
18 | O=C1NC(=O)c2ccccc2C1=CNCc1ccc(NS(=O)(=O)CC(F)(F)F)cc1 [Example 591, 2,2,2-Trifluoro-ethanesulfonic acid (4{[(1,3-dioxo-2,3-dihydro-1H-isoquinolin-4-ylidenemethyl)-amino]-methyl}-phenyl)-amide] | 23.2 µM | 25.4 µM | 20.3 µM | 36.4 µM | 41.5 µM | > 50 µM | 40 µM
19 | CC(C)CC(=O)Nc1ccc(CN/C=C2\C(=O)NC(=O)c3ccccc32)cc1 [Example 593, N-(4{[(1,3-Dioxo-2,3-dihydro-1H-isoquinolin-4-ylidenemethyl)-amino]-methyl}-phenyl)-3-methyl-butyramide] | > 50 µM | > 50 µM | 44.5 µM | 26.6 µM | 13.8 µM | 35.8 µM | 25.9 µM
20 | CCN(CC)c1ccc2c(c1)C(=CNCc1ccc(O)c(O)c1)C(=O)NC2=O [Example 608, 6-Diethylamino-4-[(3,4-dihydroxy-benzylamino)-methylene]-4H-isoquinoline-1,3-dione] | 0.2 µM | 6.7 µM | 18.9 µM | 11.6 µM | 11.4 µM | 10.4 µM | 10.7 µM
